Data published in patent publication US9006228B2 (Merck Sharp & Dohme Corp., priority 2011, dated 2015).
Values belong to the molecule of their own block, whether it stands above or below them.

Biological target: T1, human GPR119 (Homo sapiens, UniProt Q8TDV5)
T1 sequence (Q8TDV5 1-308 limits assumed): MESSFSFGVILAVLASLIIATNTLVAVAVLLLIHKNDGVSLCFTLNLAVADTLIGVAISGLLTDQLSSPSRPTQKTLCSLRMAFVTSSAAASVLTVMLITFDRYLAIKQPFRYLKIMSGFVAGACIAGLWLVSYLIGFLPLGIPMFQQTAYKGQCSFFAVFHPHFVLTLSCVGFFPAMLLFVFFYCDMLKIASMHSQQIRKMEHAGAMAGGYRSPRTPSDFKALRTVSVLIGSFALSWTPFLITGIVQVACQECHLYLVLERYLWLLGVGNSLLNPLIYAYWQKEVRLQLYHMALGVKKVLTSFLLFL
Test: Measurement of GPR119 signaling (cAMP assay; LANCE kit or HTRF) in HEK293 cells stably transfected with human GPR119
Assay type: cell-based
Details: agonist-stimulated cAMP in HEK293 cells expressing human GPR119
Protocol: Measurement of GPR119 Signaling Using LANCE 384-Well cAMP Kit
The adenylate cyclase assay was constructed following the LANCE™ cAMP Kit (Perkin Elmer, AD0264) instructions. […] The reaction was stopped by incubating with the supplied detection buffer containing the europium chelate of the Eu-SA/Biotin-cAMP tracer for 3 hours. The assay was performed in duplicate in a 384 well plate for duplicate plates. Fluorescence at 665 nm was measured using a PHERAstar instrument. Basal activity was determined using a DMSO control and maximum response was defined as cAMP stimulation produced by an internal agonist control. Standard cAMP concentrations were assayed concurrently for conversion of fluorescence signal to cAMP level. The data was analyzed using 4-parameter curve fit in Microsoft Excel.
Measurement of GPR119 Signaling Using a Cyclic AMP (cAMP) Homogenous Time Resolved Fluorescence (HTRF) Assay
Chinese hamster ovary (CHO) cell lines stably transfected with the permissive guanine nucleotide binding protein alpha 15 (Gα15) and murine GPR119 were maintained in DMEM media containing FBS, penicillin-streptomycin, puromycin, and G418 (geneticin). […] Agonist activation of the GPR119 receptor was measured in receptor transfected cells described above, treated with compounds of this invention, using a commercial homogenous time resolved fluorescence (HTRF) kit for measurement of cAMP (CisBio, Bedford, Mass.). The assay was performed in 96-well half-volume plates (murine) or 384-well plates (human) following the manufacturers instructions. Briefly, suspended cells were incubated with a dose titration of test compound at RT for 60 min, lysed, and incubated with HTRF reagents for an additional 60 min. The plate was read using an Envision multilabel reader (Perkin Elmer) adjusted to read time resolved fluorescence and the cAMP concentrations were extrapolated from a cAMP calibration curve. […] The concentration of test compound required to stimulate a half-maximal response (EC50), and efficacy as compared to an internal agonist control, was determined from a sigmoidal 4-parameter curve fit of the resulting plot of normalized activity versus compound concentration.

SMILES: CS(=O)(=O)c1c(F)cc(COC[C@@H]2C[C@@H]2C2CCN(c3ncc(F)cn3)CC2)cc1F [Example 47, 2-{4-[(1R,2R)-2-({[3,5-difluoro-4-(methylsulfonyl)benzyl]oxy}methyl)cyclopropyl]piperidin-1-yl}-5-fluoropyrimidine]
- EC50: 3.2 nM

SMILES: O=C(c1c(F)cc(COC[C@@H]2C[C@@H]2C2CCN(c3ncc(Cl)cn3)CC2)cc1F)C1CC1 [Example 53]
- EC50: 1 nM

SMILES: CCc1cnc(N2CCC([C@H]3C[C@H]3COCc3ccc(-c4ncco4)cc3)CC2)nc1 [Example 54, 5-ethyl-2-{4-[(1R,2R)-2-({[4-(1,3-oxazol-2-yl)benzyl]oxy}methyl)cyclopropyl]piperidin-1-yl}pyrimidine]
- EC50: 12 nM

SMILES: CCc1cnc(N2CCC([C@H]3C[C@H]3COCc3ccc(C[C@@H](C)O)cc3)CC2)nc1 [Example 58, (2R)-1-{4-[({(1R,2R)-2-[1-(5-ethylpyrimidin-2-yl)piperidin-4-yl]cyclopropyl}methoxy)methyl]phenyl}propan-2-ol]
- EC50: 11 nM

SMILES: CCc1cnc(N2CCC([C@H]3C[C@H]3COCc3ccc(C[C@H](C)O)cc3)CC2)nc1 [Example 59, (2S)-1-{4-[({(1R,2R)-2-[1-(5-ethylpyrimidin-2-yl)piperidin-4-yl]cyclopropyl}methoxy)methyl]phenyl}propan-2-ol]
- EC50: 1.6 nM

SMILES: CCc1cnc(N2CCC([C@H]3C[C@H]3COCc3ccc(-n4cnnn4)cc3)CC2)nc1 [Example 61, 5-ethyl-2-{4-[(1R,2R)-2-({[4-(1H-tetrazol-1-yl)benzyl]oxy}methyl)cyclopropyl]piperidin-1-yl}pyrimidine]
- EC50: 0.07 nM

SMILES: CCc1cnc(N2CCC([C@H]3C[C@H]3COCc3ccc(-n4ccnn4)cc3)CC2)nc1 [Example 62, 5-ethyl-2-{4-[(1R,2R)-2-({[4-(1H-1,2,3-triazol-1-yl)benzyl]oxy}methyl)cyclopropyl]piperidin-1-yl}pyrimidine]
- EC50: 0.3 nM

SMILES: CCc1cnc(N2CCC([C@H]3C[C@H]3COCc3ccc(-c4ncno4)cc3)CC2)nc1 [Example 63, 5-ethyl-2-{4-[(1R,2R)-2-({[4-(1,2,4-oxadiazol-5-yl)benzyl]oxy}methyl)cyclopropyl]piperidin-1-yl}pyrimidine]
- EC50: 5.5 nM

SMILES: CCc1cnc(N2CCC([C@H]3C[C@H]3COCc3ccc(S(=O)(=O)CC[C@H](C)O)cc3)CC2)nc1 [Example 64]
- EC50: 0.6 nM

SMILES: CCc1cnc(N2CCC([C@H]3C[C@H]3[C@H](COC)OCc3ccc(S(C)(=O)=O)cc3)CC2)nc1 [Example 65]
- EC50: 850 nM

SMILES: CCc1cnc(N2CCC([C@H]3C[C@H]3[C@@H](COC)OCc3ccc(S(C)(=O)=O)cc3)CC2)nc1 [Example 66]
- EC50: 0.19 nM

SMILES: CCc1cnc(N2CCC([C@H]3C[C@H]3[C@@H](COC)OCc3ccc(S(=O)(=O)CC)cc3)CC2)nc1 [Example 67]
- EC50: 0.16 nM

SMILES: CS(=O)(=O)c1ccc(COC[C@@H]2C[C@@H]2C2CCN(c3ncc(Cl)cn3)CC2)c(F)c1 [Example 68]
- EC50: 0.18 nM

SMILES: CS(=O)(=O)c1ccc(COC[C@@H]2C[C@@H]2C2CCN(c3ncc(Br)cn3)CC2)c(F)c1 [Example 70]
- EC50: 0.19 nM

SMILES: CS(=O)(=O)c1ccc(COC[C@@H]2C[C@@H]2C2CCN(c3ncc(C=O)cn3)CC2)c(F)c1 [Example 71, 2-{4-[(1R,2R)-2-({[2-fluoro-4-(methylsulfonyl)benzyl]oxy}methyl)cyclopropyl]piperidin-1-yl} pyrimidine-5-carbaldehyde]
- EC50: 13.6 nM

SMILES: CS(=O)(=O)c1ccc(COC[C@@H]2C[C@@H]2C2CCN(c3ncc(C#N)cn3)CC2)c(F)c1 [Example 72]
- EC50: 9.3 nM

SMILES: Cc1cnc(N2CCC([C@H]3C[C@H]3COCc3ccc(S(C)(=O)=O)cc3F)CC2)nc1 [Example 74]
- EC50: 4.3 nM

SMILES: CC(C)(O)c1cnc(N2CCC([C@H]3C[C@H]3COCc3ccc(S(C)(=O)=O)cc3F)CC2)nc1 [Example 75, 2-(2-{4-[(1R,2R)-2-({[2-fluoro-4-(methylsulfonyl)benzyl]oxy}methyl)cyclopropyl]piperidin-1-yl}pyrimidin-5-yl)propan-2-ol]
- EC50: 25 nM

SMILES: CC(C)(O)c1cnc(N2CCC([C@H]3C[C@H]3COCc3ccc(S(C)(=O)=O)cc3F)CC2)nc1 [Example 76]
- EC50: 15 nM

SMILES: CC(C)c1noc(N2CCC([C@H]3C[C@H]3COCc3ccc(S(C)(=O)=O)cc3F)CC2)n1 [Example 78, 4-[(1R,2R)-2-({[2-fluoro-4-(methylsulfonyl)benzyl]oxy}methyl)cyclopropyl 1]-1-(3-isopropyl-1,2,4-oxadiazol-5-yl)piperidine]
- EC50: 4.9 nM

SMILES: CC(C)(C)OC(=O)N1CCC([C@H]2C[C@H]2COCc2ccc(S(=O)(=O)CCO)cc2F)CC1 [Example 79, tert-butyl 4-{(1R,2R)-2-[({2-fluoro-4-[(2-hydroxyethyl)sulfonyl]benzyl}oxy)methyl]cyclopropyl}piperidine-1-carboxylate]
- EC50: 7.1 nM

SMILES: O=S(=O)(CCO)c1ccc(COC[C@@H]2C[C@@H]2C2CCN(c3ncc(Cl)cn3)CC2)c(F)c1 [Example 80]
- EC50: 2.3 nM

SMILES: O=S(=O)(CCO)c1ccc(COC[C@@H]2C[C@@H]2C2CCN(c3ncc(Br)cn3)CC2)c(F)c1 [Example 81]
- EC50: 1.7 nM

SMILES: Cc1cnc(N2CCC([C@H]3C[C@H]3COCc3ccc(S(=O)(=O)CCO)cc3F)CC2)nc1 [Example 82]
- EC50: 11.7 nM

More lines, in order of falling EC50, values ahead:

- EC50: 21 nM
SMILES: CCc1cnc(N2CCC([C@H]3C[C@H]3COCc3ccc(S(=O)(=O)CCO)cc3F)CC2)nc1 [Example 83]

- EC50: 20.5 nM
SMILES: CC(C)OC(=O)N1CCC([C@H]2C[C@H]2COCc2cc(F)c(S(C)(=O)=O)c(F)c2)CC1 [Example 50, isopropyl 4-[(1R,2R)-2-({[3,5-difluoro-4-(methylsulfonyl)benzyl]oxy}methyl)cyclopropyl] piperidine-1-carboxylate]

- EC50: 11.7 nM
SMILES: CC1(OC(=O)N2CCC([C@H]3C[C@H]3COCc3cc(F)c(S(C)(=O)=O)c(F)c3)CC2)CC1 [Example 49, 1-methylcyclopropyl 4-[(1R,2R)-2-({[3,5-difluoro-4-(methylsulfonyl)benzyl]oxy}methyl)cyclopropyl] piperidine-1-carboxylate]

- EC50: 3.7 nM
SMILES: O=C(c1ccc(COC[C@@H]2C[C@@H]2C2CCN(c3ncc(Cl)cn3)CC2)cc1F)C1CC1 [Example 51]

- EC50: 2.5 nM
SMILES: CCc1cnc(N2CCC([C@H]3C[C@H]3COCc3ccc(CCO)cc3)CC2)nc1 [Example 60, 2-{4-[({(1R,2R)-2-[1-(5-ethylpyrimidin-2-yl)piperidin-4-yl]cyclopropyl}methoxy)methyl]phenyl}ethanol]

- EC50: 2.4 nM
SMILES: CC(C)(C)OC(=O)N1CCC([C@H]2C[C@H]2COCc2cc(F)c(C(=O)C3CC3)c(F)c2)CC1 [Example 52, tert-butyl 4-[(1R,2R)-2-({[4-(cyclopropylcarbonyl)-3,5-difluorobenzyl]oxy}methyl)cyclopropyl]piperidine-1-carboxylate]

- EC50: 2.4 nM
SMILES: CS(=O)(=O)c1ccc(COC[C@@H]2C[C@@H]2C2CCN(c3ncc(F)cn3)CC2)c(F)c1 [Example 69]

- EC50: 1.6 nM
SMILES: COCc1cnc(N2CCC([C@H]3C[C@H]3COCc3ccc(S(C)(=O)=O)cc3F)CC2)nc1 [Example 77, 2-{4-[(1R,2R)-2-({[2-fluoro-4-(methylsulfonyl)benzyl]oxy}methyl)cyclopropyl]piperidin-1-yl}-5-(methoxymethyl)pyrimidine]

- EC50: 1.2 nM
SMILES: CCc1cnc(N2CCC([C@H]3C[C@H]3COCc3ccc(S(=O)(=O)C4CC4)cc3)CC2)nc1 [Example 56, 2-{4-[(1R,2R)-2-({[4-(cyclopropylsulfonyl)benzyl]oxy}methyl)cyclopropyl]piperidin-1-yl}-5-ethylpyrimidine]

- EC50: 0.6 nM
SMILES: CS(=O)(=O)c1c(F)cc(COC[C@@H]2C[C@@H]2C2CCN(c3ncc(C4CC4)cn3)CC2)cc1F [Example 48, 5-cyclopropyl-2-{4-[(1R,2R)-2-({[3,5-difluoro-4-(methylsulfonyl)benzyl]oxy}methyl)cyclopropyl]piperidin-1-yl}pyrimidine]

- EC50: 0.3 nM
SMILES: CCc1cnc(N2CCC([C@H]3C[C@H]3COCc3ccc(S(=O)(=O)CC)cc3)CC2)nc1 [Example 57, 5-ethyl-2-{4-[(1R,2R)-2-({[4-(ethylsulfonyl)benzyl]oxy}methyl)cyclopropyl]piperidin-1-yl}pyrimidine]
